In paper PMC11114116 (Molecular Pharmacology, 2024):
Like-named read-outs stand apart in the source and are kept apart here.

Key:
human FABP1 (hFABP1) = target: T1, human FABP1 (hFABP1) (Homo sapiens, UniProt P07148); experiment: DAUDA displacement assay for hFABP1 binding; settings: for Fres (% Fluorescence Remaining): residual DAUDA-FABP1 fluorescence at saturating ligand (Min of eq. 7); for Maximum decrease of DAUDA-FABP1 fluorescence at saturation: 0.3 μM FABP1, 0.5 μM DAUDA
T1 sequence (P07148 1-127): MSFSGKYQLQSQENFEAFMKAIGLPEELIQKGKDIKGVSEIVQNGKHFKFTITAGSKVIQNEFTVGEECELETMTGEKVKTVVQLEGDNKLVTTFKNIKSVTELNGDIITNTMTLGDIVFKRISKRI

CYP2C9 = CYP2C9 (Homo sapiens, UniProt P11712); assay type: in vitro ADME
FABP2 = settings: ref Patil et al., 2014; cited from earlier work

Chain of CYP2C9 (P11712 whole entry): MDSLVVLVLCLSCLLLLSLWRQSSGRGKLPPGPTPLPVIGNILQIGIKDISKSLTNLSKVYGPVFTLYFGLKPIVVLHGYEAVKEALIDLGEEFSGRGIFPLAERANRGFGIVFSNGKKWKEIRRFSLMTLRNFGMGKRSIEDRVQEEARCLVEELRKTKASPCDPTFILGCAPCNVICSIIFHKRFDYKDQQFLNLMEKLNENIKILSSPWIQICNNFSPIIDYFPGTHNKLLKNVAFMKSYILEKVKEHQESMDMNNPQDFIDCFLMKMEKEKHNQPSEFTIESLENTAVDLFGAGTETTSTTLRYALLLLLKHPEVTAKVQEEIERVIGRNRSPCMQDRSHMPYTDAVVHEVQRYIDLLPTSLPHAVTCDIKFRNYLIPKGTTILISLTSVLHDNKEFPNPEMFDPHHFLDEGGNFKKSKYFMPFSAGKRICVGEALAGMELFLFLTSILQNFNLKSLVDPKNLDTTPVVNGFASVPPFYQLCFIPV

Row | SMILES | EC50 (human FABP1 (hFABP1)) [µM] | Fres (% Fluorescence Remaining) (human FABP1 (hFABP1)) [%] | also measured
1 | CCCCC/C=C\C/C=C\C/C=C\C/C=C\CCCC(=O)O [Arachidonic Acid, arachidonic acid] | 0.42 ± 0.11 | 2.2 ± 3.6 | –
2 | O=C(O)Cc1ccccc1Nc1c(Cl)cccc1Cl [Diclofenac, diclofenac] | – | 15 ± 3.0 | Maximum decrease of DAUDA-FABP1 fluorescence at saturation (human FABP1 (hFABP1)): > 82%; Maximum decrease of DAUDA-FABP1 fluorescence at saturation (human FABP1 (hFABP1); listed as diclofenac): ~85%; Km at 10 min (CYP2C9; CYP2C9 Supersomes (recombinant CYP2C9) with 20 μM hFABP1, pH 7.4, Km,apparent for 4'-OH-diclofenac formation, +FABP1, nominal diclofenac concentrations, 20 μM hFABP1, 1 nM CYP2C9 Supersomes): 5.8 ± 1.5 µM; Km at 10 min (CYP2C9; CYP2C9 Supersomes (recombinant CYP2C9), without hFABP1, pH 7.4, Km,apparent for 4'-OH-diclofenac formation, −FABP1, nominal diclofenac concentrations, absence of FABP1, 1 nM CYP2C9 Supersomes): 1.4 ± 0.2 µM
3 | Cc1ccc(C)c(OCCCC(C)(C)C(=O)O)c1 [Gemfibrozil, gemfibrozil] | 5.6 ± 1.7 | 18 ± 2.8 | Maximum decrease of DAUDA-FABP1 fluorescence at saturation (human FABP1 (hFABP1)): > 82%
4 | CC(C)Cc1ccc(C(C)C(=O)O)cc1 (centres unmarked) [Ibuprofen, ibuprofen] | – | 28 ± 4.9 | –
5 | O=C(c1ccccc1)c1ccc2n1CCC2C(=O)O (centres unmarked) [Ketorolac, ketorolac] | – | – | Displacement of fluorescent probe ANS from FABP2 (FABP2): did not displace
6 | CCc1ccc(CCOc2ccc(CC3SC(=O)NC3=O)cc2)nc1 (centres unmarked) [Pioglitazone, pioglitazone] | – | 5.2 ± 2.4 | Maximum decrease of DAUDA-FABP1 fluorescence at saturation (human FABP1 (hFABP1)): > 82%
7 | C[C@@H](C(=O)O)c1ccc(-c2ccccc2)c(F)c1 [R-Flurbiprofen, (R)-flurbiprofen] | – | 40 ± 1.6 | –
8 | C[C@H](C(=O)O)c1ccc(-c2ccccc2)c(F)c1 [S-Flurbiprofen, (S)-flurbiprofen] | – | 48 ± 1.1 | –
9 | Nc1ccc(S(=O)(=O)Nc2ccnn2-c2ccccc2)cc1 [Sulfaphenazole, sulfaphenazole] | > 40 | – | –
10 | CCCCNC(=O)NS(=O)(=O)c1ccc(C)cc1 [Tolbutamide, tolbutamide] | > 40 | – | –
11 | CNCCC(Oc1ccc(C(F)(F)F)cc1)c1ccccc1 (centres unmarked) [fluoxetine] | – | – | Decrease of DAUDA fluorescence in initial screen (human FABP1 (hFABP1); drug at 30 μM, 0.3 μM FABP1 prebound with 0.5 μM DAUDA): All of the drugs tested except fluoxetine decreased DAUDA fluorescence
12 | CC(C(=O)O)c1ccc(-c2ccccc2)c(F)c1 (centres unmarked) [flurbiprofen] | – | – | Kd (human FABP1 (hFABP1)): 2 to 10 µM
